# Columns and labels:
# Test in all cases: pot-culture method, stem and leaf treatment in greenhouse, fresh weight inhibition rate 20 days after treatment (Gowing method)
# Assay type in all cases: in vivo
# Alopecurus japonicus = test system: Alopecurus japonicus
# Method: (§1) Capsella bursa-pastoris, Myosoton aquaticum, Alopecurus japonicus were collected from corn fields in Huangdao Experimental Base of Shandong Province.
# (§2) The above weeds were cultivated by a pot culture method. […] Full and uniform weed seeds were selected, soaked in warm water at 25° C. for 6 hours, and germinated in a 28° C. biochemical incubator (darkness). […] A certain amount of water was added to the enamel pan regularly to keep the soil moist.
# (§3) The technical materials were all dissolved in acetone, and diluted with an aqueous solution containing 0.1% emulsifier T-80. The dilution is performed as required.
# (§4) A ratio of the active ingredient A to the active ingredient B and amounts thereof in each group depends on the characteristics and toxicity of the two agents, as well as the main application purpose of a corresponding formulation. Based on the pre-tests in this study, the dosage of the active ingredient A and the active ingredient B applied alone and in combination were shown in the tables, and a total 15 groups were designed. Water containing the solvent and emulsifier same with the above groups but free of the agents was used as a blank control.
# (§5) 3 pots with 20 weed seeds per pot were treated in one treatment with […] per treatment, that is, a total of 60 weeds were treated in one treatment.
# (§6) The agents were used for only once in the experiment. In the stage of weeds with 2 leaves and 1 core, the weeds were thinned out to maintain 15 weeds per pot and 45 weeds for each treatment, then continued to be cultured to 3-5-leaves stage of Capsella bursa-pastoris and Myosoton aquaticum, and 3-leaves and 1-core stage of Alopecurus japonicus, and treated.
# (§7) The well-cultured weeds were evenly placed on a platform with an area of 0.5 m^2, and a solution of agents was sprayed on the stems and leaves thereof by the 3WP-2000-type walking spray tower at a dosage of 30 kg/ha and at a spray pressure of 0.3 MPa. After all the solution was sprayed, the valve was closed. After 30 seconds, the door of the spray tower was opened, and the nutritional bowl was taken out. Then the valve was opened, and the spray tube was cleaned by spraying 50 ml of water.
# (§8) A pot-culture method was employed. For the cultivation of weeds, please refer to the Section 1.2, and “Pesticide guidelines for laboratory bioactivity tests—herbicides”. As to a method for applying agents, please refer to the section 2.3.2, that is, a method for treating stems and leaves was employed.
# (§9) A method for investigating absolute number was employed, wherein whole seedlings of survival weeds were cut off with a blade along the soil surface, and the fresh weight of the weeds was weighed with an analytical balance. For dead weeds, the fresh weight thereof was zero.
# (§10) The investigation was performed after 20 days of the treatment for only once.
# (§11) Wherein, in the formula, X represented the fresh weight inhibition rate of the active ingredient A in a dosage of P, and Y represented the fresh weight inhibition rate of the active ingredient B in a dosage of Q.
# Capsella bursa-pastoris = settings: for pest or weed control at 750 g/ha: 750 g/hm^2
# Method: as §1, §2, §3, §4, §5, §6, §7, §8, §9, §10, §11
# Myosoton aquaticum = settings: for pest or weed control at 750 g/ha: 750 g/hm^2
# Method: as §1, §2, §3, §4, §5, §6, §7, §8, §9, §10, §11
# [1] = Capsella bursa-pastoris, 40 g/hm^2
# [2] = Capsella bursa-pastoris, 480 h, read-out: actual fresh weight inhibition rate
# [3] = Myosoton aquaticum, 480 h, read-out: actual fresh weight inhibition rate
# [4] = 480 h, Capsella bursa-pastoris, read-out: actual fresh weight inhibition rate
# [5] = Myosoton aquaticum, 480 h, Myosoton aquaticum, read-out: actual fresh weight inhibition rate
molecule,measurement,setting,value
COc1nn(C(=O)[N-]S(=O)(=O)c2ccccc2OC(F)(F)F)c(=O)n1C.[Na+] [Flucarbazone-sodium],actual fresh weight inhibition rate,Alopecurus japonicus; dosage 20 g/hm^2,69.6%
same,actual fresh weight inhibition rate,Alopecurus japonicus; dosage 35 g/hm^2,80.3%
same,actual fresh weight inhibition rate,Alopecurus japonicus; dosage 50 g/hm^2,85.6%
same,actual fresh weight inhibition rate,Capsella bursa-pastoris; dosage 20 g/hm^2,25.6%
same,actual fresh weight inhibition rate,Capsella bursa-pastoris; dosage 35 g/hm^2,42.7%
same,actual fresh weight inhibition rate,Capsella bursa-pastoris; dosage 50 g/hm^2,65.1%
C[C@@H](Oc1ccc(Oc2ncc(Cl)cc2F)cc1)C(=O)O [clodinafop],actual fresh weight inhibition rate,"Alopecurus japonicus; Alopecurus japonicus, 40 g/hm^2",81.3%
same,actual fresh weight inhibition rate,"Alopecurus japonicus; Alopecurus japonicus, 65 g/hm^2",87.4%
same,actual fresh weight inhibition rate,"Alopecurus japonicus; Alopecurus japonicus, 90 g/hm^2",95.6%
same,actual fresh weight inhibition rate,Capsella bursa-pastoris; [1],0%
same,actual fresh weight inhibition rate,"Capsella bursa-pastoris; Capsella bursa-pastoris, 65 g/hm^2",0%
same,actual fresh weight inhibition rate,"Capsella bursa-pastoris; Capsella bursa-pastoris, 90 g/hm^2",0%
"COC(=O)c1nc(-c2ccc(Cl)c(OC)c2F)cc(N)c1Cl [halauxifen-methyl, reference compound]",actual fresh weight inhibition rate (%),Capsella bursa-pastoris; dosage 5 g/hm^2,59.7%
same,actual fresh weight inhibition rate (%),Capsella bursa-pastoris; dosage 10 g/hm^2,71.4%
same,actual fresh weight inhibition rate (%),Myosoton aquaticum; dosage 5 g/hm^2,17.5%
same,actual fresh weight inhibition rate (%),Myosoton aquaticum; dosage 10 g/hm^2,35.6%
COC(=O)c1c(Cl)nn(C)c1S(=O)(=O)NC(=O)Nc1nc(OC)cc(OC)n1 [halosulfuron-methyl],pest or weed control at 30 g/ha,Capsella bursa-pastoris; [2],17.9%
same,pest or weed control at 50 g/ha,Capsella bursa-pastoris; [2],27.8%
same,pest or weed control at 70 g/ha,Capsella bursa-pastoris; [2],44.1%
same,pest or weed control at 30 g/ha,Myosoton aquaticum; [3],14.5%
same,pest or weed control at 50 g/ha,Myosoton aquaticum; [3],34.9%
same,pest or weed control at 70 g/ha,Myosoton aquaticum; [3],50.5%
CC(C)c1ccc(NC(=O)N(C)C)cc1 [isoproturon],pest or weed control at 300 g/ha,"Capsella bursa-pastoris; 480 h, Capsella bursa-pastoris, 300 g/hm^2, read-out: actual fresh weight inhibition rate",21.7%
same,pest or weed control at 750 g/ha,Capsella bursa-pastoris; [4],33.7%
same,pest or weed control at 1200 g/ha,"Capsella bursa-pastoris; 480 h, Capsella bursa-pastoris, 1200 g/hm^2, read-out: actual fresh weight inhibition rate",57.2%
same,pest or weed control at 300 g/ha,"Myosoton aquaticum; Myosoton aquaticum, 480 h, Myosoton aquaticum, 300 g/hm^2, read-out: actual fresh weight inhibition rate",19.4%
same,pest or weed control at 750 g/ha,Myosoton aquaticum; [5],26.4%
same,pest or weed control at 1200 g/ha,"Myosoton aquaticum; Myosoton aquaticum, 480 h, Myosoton aquaticum, 1200 g/hm^2, read-out: actual fresh weight inhibition rate",47.5%
COC(=O)c1ccc(CNS(C)(=O)=O)cc1S(=O)(=O)NC(=O)Nc1nc(OC)cc(OC)n1 [mesosulfuron-methyl],actual fresh weight inhibition rate,Alopecurus japonicus; dosage 6 g/hm^2,67.9%
same,actual fresh weight inhibition rate,Alopecurus japonicus; dosage 9 g/hm^2,73.2%
same,actual fresh weight inhibition rate,Alopecurus japonicus; dosage 12 g/hm^2,88.9%
same,actual fresh weight inhibition rate,Capsella bursa-pastoris; dosage 6 g/hm^2,24.5%
same,actual fresh weight inhibition rate,Capsella bursa-pastoris; dosage 9 g/hm^2,37.6%
same,actual fresh weight inhibition rate,Capsella bursa-pastoris; dosage 12 g/hm^2,63.4%
"CSc1nnc(C(C)(C)C)c(=O)n1N [metribuzin, reference compound]",actual fresh weight inhibition rate (%),Capsella bursa-pastoris; dosage 13.5 g/hm^2,55.6%
same,actual fresh weight inhibition rate (%),Capsella bursa-pastoris; dosage 25 g/hm^2,64.1%
same,actual fresh weight inhibition rate (%),Capsella bursa-pastoris; dosage 36.5 g/hm^2,82.3%
same,actual fresh weight inhibition rate (%),Myosoton aquaticum; dosage 13.5 g/hm^2,42.1%
same,actual fresh weight inhibition rate (%),Myosoton aquaticum; dosage 25 g/hm^2,52.9%
same,actual fresh weight inhibition rate (%),Myosoton aquaticum; dosage 36.5 g/hm^2,58.5%
O=C(Nc1ccc(F)cc1)c1cccc(Oc2cccc(C(F)(F)F)c2)n1 [picolinafen],actual fresh weight inhibition rate,Capsella bursa-pastoris; [1],16.4%
same,actual fresh weight inhibition rate,"Capsella bursa-pastoris; Capsella bursa-pastoris, 80 g/hm^2",33.2%
same,actual fresh weight inhibition rate,"Capsella bursa-pastoris; Capsella bursa-pastoris, 120 g/hm^2",55.6%
same,actual fresh weight inhibition rate,"Myosoton aquaticum; Myosoton aquaticum, 40 g/hm^2",14.5%
same,actual fresh weight inhibition rate,"Myosoton aquaticum; Myosoton aquaticum, 80 g/hm^2",34.9%
same,actual fresh weight inhibition rate,"Myosoton aquaticum; Myosoton aquaticum, 120 g/hm^2",50.5%
CCc1cc(C)cc(CC)c1-c1c(OC(=O)C(C)(C)C)n2n(c1=O)CCOCC2 [pinoxaden],actual fresh weight inhibition rate,Alopecurus japonicus; dosage 60 g/hm^2,69.2%
same,actual fresh weight inhibition rate,Alopecurus japonicus; dosage 80 g/hm^2,78.6%
same,actual fresh weight inhibition rate,Alopecurus japonicus; dosage 120 g/hm^2,85.2%
same,pest or weed control at 60 g/ha,"Capsella bursa-pastoris; Capsella bursa-pastoris, 480 h, dosage 60 g/hm^2, read-out: actual fresh weight inhibition rate",0%
same,pest or weed control at 80 g/ha,"Capsella bursa-pastoris; Capsella bursa-pastoris, 480 h, dosage 80 g/hm^2, read-out: actual fresh weight inhibition rate",0%
same,pest or weed control at 120 g/ha,"Capsella bursa-pastoris; Capsella bursa-pastoris, 480 h, dosage 120 g/hm^2, read-out: actual fresh weight inhibition rate",0%
CSc1nc(NC(C)C)nc(NC(C)C)n1 [prometryn],pest or weed control at 150 g/ha,"Capsella bursa-pastoris; 480 h, Capsella bursa-pastoris, 150 g/hm^2, read-out: actual fresh weight inhibition rate",20.4%
same,pest or weed control at 450 g/ha,"Capsella bursa-pastoris; 480 h, Capsella bursa-pastoris, 450 g/hm^2, read-out: actual fresh weight inhibition rate",29.6%
same,pest or weed control at 750 g/ha,Capsella bursa-pastoris; [4],45.7%
same,pest or weed control at 150 g/ha,"Myosoton aquaticum; Myosoton aquaticum, 480 h, Myosoton aquaticum, 150 g/hm^2, read-out: actual fresh weight inhibition rate",22.6%
same,pest or weed control at 450 g/ha,"Myosoton aquaticum; Myosoton aquaticum, 480 h, Myosoton aquaticum, 450 g/hm^2, read-out: actual fresh weight inhibition rate",33.7%
same,pest or weed control at 750 g/ha,Myosoton aquaticum; [5],45.2%
COc1cc(OC)n2nc(NS(=O)(=O)c3c(C(F)(F)F)ccnc3OC)nc2n1 [pyroxsulam],actual fresh weight inhibition rate,Alopecurus japonicus; dosage 5 g/hm^2,63.5%
same,actual fresh weight inhibition rate,Alopecurus japonicus; dosage 10 g/hm^2,81.9%
same,actual fresh weight inhibition rate,Alopecurus japonicus; dosage 15 g/hm^2,91.5%
same,actual fresh weight inhibition rate,Capsella bursa-pastoris; dosage 5 g/hm^2,19.4%
same,actual fresh weight inhibition rate,Capsella bursa-pastoris; dosage 10 g/hm^2,31.7%
same,actual fresh weight inhibition rate,Capsella bursa-pastoris; dosage 15 g/hm^2,55.6%
CCNc1nc(NC(C)(C)C)nc(SC)n1 [terbutryn],pest or weed control at 125 g/ha,"Capsella bursa-pastoris; 480 h, Capsella bursa-pastoris, 125 g/hm^2, read-out: actual fresh weight inhibition rate",15.4%
same,pest or weed control at 275 g/ha,"Capsella bursa-pastoris; 480 h, Capsella bursa-pastoris, 275 g/hm^2, read-out: actual fresh weight inhibition rate",25.3%
same,pest or weed control at 425 g/ha,"Capsella bursa-pastoris; 480 h, Capsella bursa-pastoris, 425 g/hm^2, read-out: actual fresh weight inhibition rate",40.9%
same,pest or weed control at 125 g/ha,"Myosoton aquaticum; Myosoton aquaticum, 480 h, Myosoton aquaticum, 125 g/hm^2, read-out: actual fresh weight inhibition rate",13.4%
same,pest or weed control at 275 g/ha,"Myosoton aquaticum; Myosoton aquaticum, 480 h, Myosoton aquaticum, 275 g/hm^2, read-out: actual fresh weight inhibition rate",29.3%
same,pest or weed control at 425 g/ha,"Myosoton aquaticum; Myosoton aquaticum, 480 h, Myosoton aquaticum, 425 g/hm^2, read-out: actual fresh weight inhibition rate",33.9%
CCO/N=C(\CC)C1=C(O)CC(c2c(C)cc(C)cc2C)CC1=O (stereo not shown) [tralkoxydim],actual fresh weight inhibition rate,"Alopecurus japonicus; Alopecurus japonicus, 240 g/hm^2",74.5%
same,actual fresh weight inhibition rate,"Alopecurus japonicus; Alopecurus japonicus, 360 g/hm^2",81.2%
same,actual fresh weight inhibition rate,"Alopecurus japonicus; Alopecurus japonicus, 480 g/hm^2",89.8%
same,pest or weed control at 240 g/ha,Capsella bursa-pastoris; [2],0%
same,pest or weed control at 360 g/ha,Capsella bursa-pastoris; [2],0%
same,pest or weed control at 480 g/ha,Capsella bursa-pastoris; [2],0%
"dimethylammonium 4-chloro-o-tolyloxyacetate [MCPA-dimethylammonium, reference compound]",actual fresh weight inhibition rate (%),Capsella bursa-pastoris; dosage 550 g/hm^2,29.2%
same,actual fresh weight inhibition rate (%),Capsella bursa-pastoris; dosage 950 g/hm^2,43.6%
same,actual fresh weight inhibition rate (%),Capsella bursa-pastoris; dosage 1350 g/hm^2,59.2%
same,actual fresh weight inhibition rate (%),Myosoton aquaticum; dosage 550 g/hm^2,26.7%
same,actual fresh weight inhibition rate (%),Myosoton aquaticum; dosage 950 g/hm^2,33.1%
same,actual fresh weight inhibition rate (%),Myosoton aquaticum; dosage 1350 g/hm^2,47.2%

# Reference: patent US10506810B2, “Synergistic herbicidal composition” (QINGDAO KINGAGROOT RESISTANT WEED MANAGEMENT CO., LTD., priority 2015, dated 2019)
